# “And” between values parts separate entries of the source, which are not always exact repeats. Equal values may be shown once.
# Legend:
# [1] = tested on: cough; details: clinical treatment; apparent success attributed to placebo effect (Ramsey et al.); cited from earlier work
# [2] = tested on: citric acid induced cough responses; test: Citric acid induced cough, theobromine and neuropathic pain agent (Example 9)
# [3] = tested on: citric acid induced cough responses; test: Citric acid induced cough, theobromine and NSAID (Example 8)
# [4] = tested on: citric acid induced cough responses; test: Citric acid induced cough, theobromine and ACE inhibitor (Example 11)
# [5] = tested on: citric acid induced cough responses; test: Citric acid induced cough, theobromine and opiate antitussive agent (Example 4); type: in vivo, guinea pig
# [6] = tested on: citric acid induced cough responses; test: Citric acid induced cough, theobromine and decongestant (Example 5); type: in vivo, guinea pig
# [7] = tested on: citric acid induced cough responses; test: Citric acid induced cough, theobromine and terpene (Example 10)
# [8] = tested on: citric acid induced cough responses; test: Citric acid induced cough, theobromine and antihistamine (Example 6)
# [9] = tested on: citric acid induced cough responses; test: Citric acid induced cough, oral and intratracheal theobromine (Example 2); details: 30 min prior
# [10] = tested on: citric acid induced cough responses; test: Citric acid induced cough, theobromine and non-opiate antitussive agent (Example 3)
# [11] = tested on: citric acid induced cough responses; test: Citric acid induced cough, theobromine and expectorant (Example 7)
# [12] = tested on: citric acid induced cough; details: guinea-pigs (Minamizawa et al. 2006); cited from earlier work
# [13] = tested on: citric acid induced cough responses; test: Citric acid induced cough, oral theobromine (Example 1); type: in vivo, guinea pig; details: 120 min prior to citric acid exposure
# [14] = tested on: coughing condition; test: Treatment of a coughing condition, patient cases (Example 12); type: in vivo, human; details: person, after about 2 days
# [15] = gabapentin 60 mg/kg p.o. only, 60 min prior
# [16] = ibuprofen 30 mg/kg p.o. only, 60 min prior
# [17] = captopril 30 mg/kg p.o., 120 min prior
# [18] = codeine 25 mg/kg i.p., 30 min prior
# [19] = guaifenesin 30 mg/kg p.o., 60 min prior
# [20] = theobromine 7 mg/kg p.o., 120 min prior
# [21] = theobromine 10 mg/kg p.o., 120 min prior
# [22] = theobromine 10 mg/kg p.o., 30 min prior
# [23] = theobromine 30 mg/kg p.o., 120 min prior
structure (smiles),measurement,setting,value
COc1ccc2c(c1)[C@]13CCCC[C@@H]1[C@H](C2)N(C)CC3 [Dextromethorphan],efficacy in treating cough,[1],no efficacy
NCC1(CC(=O)O)CCCCC1 [Gabapentin],onset time to the first cough,[2]; [15],90 ± 6 s
same,total number of coughs,[2]; [15],24±8 coughs
CC(C)Cc1ccc(C(C)C(=O)O)cc1 (stereo not drawn) [Ibuprofen],onset time to the first cough,[3]; [16],70 ± 5 s
same,total number of coughs,[3]; [16],22±6 coughs
C[C@H](CS)C(=O)N1CCC[C@H]1C(=O)O [captopril],onset time to the first cough,[4]; [17],34 ± 12 s
same,total number of coughs,[4]; [17],45±12 coughs
COc1ccc2c3c1O[C@H]1[C@@H](O)C=C[C@H]4[C@@H](C2)N(C)CC[C@@]341 [codeine],Cough Events Mean Number,[5]; [18],6 ± 1 coughs
same,Cough Events Mean Onset Time,[5]; [18],195 ± 33 s
same,Cough Events Mean Number,[6]; [18],6 ± 1 coughs
same,Cough Events Mean Onset Time,[6]; [18],195 ± 25 s
same,number of citric acid induced coughs,[3]; [18],8±3 coughs
same,onset time to the first cough,[3]; [18],150 ± 32 s
same,number of citric acid induced coughs,[7]; [18],6±2 coughs
same,onset time to the first cough,[7]; [18],170 ± 28 s
same,Cough Events Mean Number,[8]; [18],5 ± 1 coughs
same,Cough Events Mean Onset Time,[8]; [18],236 ± 22 s
same,number of citric acid induced coughs,[4]; [18],7±3 coughs
same,onset time to the first cough,[4]; [18],170 ± 28 s
same,Cough Events Mean Number,[9]; codeine 25 mg/kg i.p.,5 ± 1 coughs
same,Cough Events Mean Onset Time,[9]; codeine 25 mg/kg i.p.,337 ± 51 s
same,number of citric acid induced coughs,[2]; [18],9±4 coughs
same,onset time to the first cough,[2]; [18],161 ± 31 s
same,Cough Events Mean Number,[10]; [18],7 ± 2 coughs
same,Cough Events Mean Onset Time,[10]; [18],170 ± 32 s
COc1ccccc1OCC(O)CO (stereo not drawn) [guaifenesin],Cough Events Mean Number,[11]; [19],28 ± 3 coughs
same,Cough Events Mean Onset Time,[11]; [19],52 ± 10 s
CN[C@@H](C)[C@@H](O)c1ccccc1 [pseudoephedrine],efficacy in the citric acid induced cough model,[12],very limited efficacy
"Cn1cnc2c1c(=O)[nH]c(=O)n2C [theobromine, 3,7-dihydro-3,7-dimethyl-1H-purine-2,6-dione]",Cough Events Mean Number,[13]; theobromine 3 mg/kg p.o.,25 ± 4 coughs
same,Cough Events Mean Onset Time,[13]; theobromine 3 mg/kg p.o.,73 ± 17 s
same,Cough Events Mean Number,[13]; theobromine 7 mg/kg p.o.,18 ± 3 coughs
same,Cough Events Mean Onset Time,[13]; theobromine 7 mg/kg p.o.,98 ± 36 s
same,Cough Events Mean Number,[5]; [20],19 ± 3 coughs
same,Cough Events Mean Onset Time,[5]; [20],91 ± 13 s
same,Cough Events Mean Number,[6]; [21],13 ± 3 coughs
same,Cough Events Mean Onset Time,[6]; [21],156 ± 15 s
same,coughing episodes as indicated by patient,"[14]; cough as side-effect of ACE inhibitor medication, theobromine in conjunction with the ACE inhibitor",decreased coughing episodes
same,coughing episodes as indicated by patient,"[14]; cough due to angiotensin II receptor antagonist medication, theobromine in conjunction with it",decreased coughing episodes
same,number of citric acid induced coughs,[3]; [21],15±3 coughs
same,onset time to the first cough,[3]; [21],113 ± 15 s
same,number of citric acid induced coughs,[7]; [21],14±5 coughs
same,onset time to the first cough,[7]; [21],120 ± 23 s
same,Cough Events Mean Number,[11]; [22],15 ± 3 coughs
same,Cough Events Mean Onset Time,[11]; [22],126 ± 12 s
same,Cough Events Mean Number,[8]; [21],15 ± 2 coughs
same,Cough Events Mean Onset Time,[8]; [21],103 ± 15 s
same,number of citric acid induced coughs,[4]; [23],10±4 coughs
same,onset time to the first cough,[4]; [23],125 ± 22 s
same,Cough Events Mean Number,[9]; theobromine 3 mg/kg i.t.,17 ± 2 coughs
same,Cough Events Mean Onset Time,[9]; theobromine 3 mg/kg i.t.,115 ± 29 s
same,Cough Events Mean Number,[9]; theobromine 10 mg/kg i.t.,10.3±2 coughs and 10 ± 2 coughs
same,Cough Events Mean Onset Time,[9]; theobromine 10 mg/kg i.t.,134 ± 18 s
same,Cough Events Mean Number,[9]; theobromine 30 mg/kg i.t.,6 ± 1 coughs
same,Cough Events Mean Onset Time,[9]; theobromine 30 mg/kg i.t.,210 ± 22 s
same,Cough Events Mean Number,[9]; theobromine 30 mg/kg p.o.,12 ± 2 coughs
same,Cough Events Mean Onset Time,[9]; theobromine 30 mg/kg p.o.,126 ± 20 s
same,number of citric acid induced coughs,[2]; [21],14±4 coughs
same,onset time to the first cough,[2]; [21],108 ± 19 s
same,Cough Events Mean Number,[10]; [21],13 ± 2 coughs
same,Cough Events Mean Onset Time,[10]; [21],139 ± 22 s

# Reference: patent publication US10420812B2, “Drug combinations and uses in treating a coughing condition” (Infirst Healthcare Limited, priority 2009, dated 2019)
